Test results published in US5057494A, “Method for preventing tissue damage after an ischemic episode” (Ethicon, Inc., priority 1988, dated 1991).

Tests used:
[1] = test system: hippocampal pyramidal cell layer; test: Blinded histological evaluation of brain sections after 5-min bilateral carotid occlusion; type: in vivo, gerbil; settings: for Protection of the animal's neurons (in words): as monitored by motor activity or histology; for Average Histopathology Score: Example 2, saline 4.8, scale 0-5 of Table 4
Source text: (§1) The present example is based on a surgical procedure that has been developed to study the effects of cerebral or brain ischemia in the unanesthetized gerbil. The methodology is based upon the surgical isolation and instrumentation of both common carotid arteries. A loop of dental floss is placed around each carotid artery and passed through a double lumen catheter material; this allows for later occlusion of the carotid arteries and their release in the unanesthetized subject. […] Behavioral changes consequent to stroke are useful and pertinent as a means of evaluation in this model of nonlethal transient ischemia Emotional lability, depression, agitation and motor and cognitive deficits are common after stroke. The psychomotor depression noted immediately after transient ischemia in this gerbil model mimics the clinical situation in humans. Spontaneous motor activity is an indicator of aroused state and is a behavior commonly measured in psychopharmacology research. Changes in locomotor activity have been shown in extensive pharmacological and toxicology studies to provide reliable, reproducible first-assessment data about neurological status. The details of this method are more fully set forth in Chandler, M.J. et al., J. Pharm. Meth. 14:137-146 (1985).
(§2) Ligatures externalized through double lumen catheters were surgically placed around both common carotid arteries of mature (50-60 gram) gerbils. After allowing recovery from surgery, conscious gerbils were subjected to a 5 minute period of bilateral carotid occlusion by tightening the ligatures. Spontaneous motor activity was then periodically monitered over seven days followed by animal sacrifice and blinded histological evaluation of brain sections. EGF (0.1 and 1.0 mg/kg) and FGF (0.1, 1.0 and 10.0 mg/kg) were given intraperitoneally in saline at one hour pre-occlusion and one, three, five and seven hours post-occlusion. Two control groups (occluded and non-occluded) received saline by the same route.
(§3) Gerbils were treated as in Example 1, except that dosing was at 1,3,5 and 7 hours post-occlusion only.

[2] = test system: gerbils; test: Spontaneous locomotor activity after 5-min bilateral carotid occlusion (photocell activity chambers); type: in vivo, gerbil; settings: for Motor Activity at 24 hours: Example 2, saline 3028; for Spontaneous locomotor activity: Table 1, mean of 6 gerbils
Source text: as §1, §2
Spontaneous locomotor activity was recorded using photocell activity chambers. The chambers were two-foot circular arenas that were individually housed in sound attenuating compartments ventilated by a fan. Activity was monitored by two orthogonally placed photocell circuits. A single break of the photocell light beam by the animal's movements defined an activity count counts were monitored and recorded as a function of time. The data in Tables 1 and 2 represent activity counts.
as §3

[3] = 0.01 mg/kg i.p. at 1,3,5,7 h post-occlusion only
[4] = 0.1 mg/kg i.p. at 1,3,5,7 h post-occlusion only
[5] = 1 mg/kg i.p. at 1,3,5,7 h post-occlusion only

## EGF: epidermal growth factor; polypeptide growth factor (human EGF is fifty-three amino acids); source of tested material not stated
[1]; 0.1 mg/kg i.p. pre- and post-occlusion
  Protection of the animal's neurons (in words): modest protection
[1]; 1 mg/kg i.p. pre- and post-occlusion
  Protection of the animal's neurons (in words): almost total protection
[1]; [3]
  Average Histopathology Score: 4.7
[1]; [4]
  Average Histopathology Score: 1.5
[1]; [5]
  Average Histopathology Score: 2.2
[2]; [3]
  Motor Activity at 24 hours: 1891
[2]; [4]
  Motor Activity at 24 hours: 1051
[2]; [5]
  Motor Activity at 24 hours: 715
[2]; 0.1 mg/kg i.p. at 1 h pre- and 1,3,5,7 h post-occlusion, 6 h after ischemia, saline post-ischemic 2366, non-ischemic 485
  Spontaneous locomotor activity: 1511 activity counts
[2]; 0.1 mg/kg i.p. at 1 h pre- and 1,3,5,7 h post-occlusion, 24 h after ischemia, saline post-ischemic 1960, non-ischemic 529
  Spontaneous locomotor activity: 658 activity counts
[2]; 0.1 mg/kg i.p. at 1 h pre- and 1,3,5,7 h post-occlusion, 48 h after ischemia, saline post-ischemic 2145, non-ischemic 613
  Spontaneous locomotor activity: 687 activity counts
[2]; 0.1 mg/kg i.p. at 1 h pre- and 1,3,5,7 h post-occlusion, 72 h after ischemia, saline post-ischemic 1011, non-ischemic 579
  Spontaneous locomotor activity: 715 activity counts
[2]; 0.1 mg/kg i.p. at 1 h pre- and 1,3,5,7 h post-occlusion, 96 h after ischemia, saline post-ischemic 895, non-ischemic 493
  Spontaneous locomotor activity: 626 activity counts
[2]; 0.1 mg/kg i.p. at 1 h pre- and 1,3,5,7 h post-occlusion, 120 h after ischemia, saline post-ischemic 486, non-ischemic 463
  Spontaneous locomotor activity: 511 activity counts
[2]; 1.0 mg/kg i.p. at 1 h pre- and 1,3,5,7 h post-occlusion, 6 h after ischemia, saline post-ischemic 2366, non-ischemic 485
  Spontaneous locomotor activity: 705 activity counts
[2]; 1.0 mg/kg i.p. at 1 h pre- and 1,3,5,7 h post-occlusion, 24 h after ischemia, saline post-ischemic 1960, non-ischemic 529
  Spontaneous locomotor activity: 766 activity counts
[2]; 1.0 mg/kg i.p. at 1 h pre- and 1,3,5,7 h post-occlusion, 48 h after ischemia, saline post-ischemic 2145, non-ischemic 613
  Spontaneous locomotor activity: 588 activity counts
[2]; 1.0 mg/kg i.p. at 1 h pre- and 1,3,5,7 h post-occlusion, 72 h after ischemia, saline post-ischemic 1011, non-ischemic 579
  Spontaneous locomotor activity: 463 activity counts
[2]; 1.0 mg/kg i.p. at 1 h pre- and 1,3,5,7 h post-occlusion, 96 h after ischemia, saline post-ischemic 895, non-ischemic 493
  Spontaneous locomotor activity: 445 activity counts
[2]; 1.0 mg/kg i.p. at 1 h pre- and 1,3,5,7 h post-occlusion, 120 h after ischemia, saline post-ischemic 486, non-ischemic 463
  Spontaneous locomotor activity: 314 activity counts
